Series [1] concerns spontaneously hypertensive rats. Nature of the series: Antihypertensive action, tail-cuff method, single oral dose. Format: in vivo. The following applies: difference in blood pressure before and after administration; 10 mg/kg oral; an hour after the administration; two rats. The protocol: Measurement was conducted an hour after the administration. […] The antihypertensive action of each of […] nicardipine was also measured for comparison.

The test system of series [2] is thoracic aorta. Nature of the series: Calcium antagonism: relaxation of thoracic aorta helical strips contracted with hyperpotassium solution. It counts as cell-based, rabbit. The following applies: Oryctolagus cuniculus; concentration for 50 % relaxation; hyperpotassium solution (50 mM); relaxation with 10^-4 M papaverine defined as 100 %; read-out: Measured Value (IC50). The protocol: A thoracic aorta was removed from a rabbit to obtain a helical strips (width: 3 mm; length: 30 mm). This strip was suspended under a load of 0.5 g in a Magnus tube filled with Krebs-Henseleit solution. Subsequently, the Krebs-Henseleit solution was replaced with hyperpotassium solution (50 mM) to contract the strip. The strip was then left to stand until the contraction was stabilized. Thereafter, the compounds obtained in Examples 18, 19 and 20 and dissolved in ethanol-distilled water were added to the strip.
The concentration (IC50) of each compound required for obtaining relaxation of 50 % was measured. It is to be noted that the relaxation of a strip treated with 10-^4M papaverine was defined to 100 %.

Series [3] in a line: in vivo. The following applies: oral, after a fast, 4-week old mouse, read-out: Toxicity (LD50). The protocol: After a fast, a ddy-mouse (4-week old) was orally given a solution obtained by dissolving and/or suspending the compound in each Example 18, 19 and 20 in dimethylsulfoxide (DMSO) or carboxymethylcellulose (CMC). The value of LD50 was calculated from the mortality.

In series [4] the test system is spontaneously hypertensive rats. In words: Antihypertensive action regarding administration amount, tail-cuff method. It counts as in vivo. The note with it: for ED (40 mmHg decrease): Rattus norvegicus, read-out: ED-40 mmHg; for T1/2(dose): time for recovery to 50 % of maximal effect (index of persistence). The protocol: Ten spontaneously hypertensive rats (10 - 20 week old) were used for this test. Blood pressure was measured in accordance with tail-cuff method by employing a blood pressure gauge for small animals UR-1000 (manufactured by Ueda Works, Ltd., Japan). […] The amount of each compound required for lowering the blood pressure of 40 mmHg decrease in blood pressure was calculated from the relationship between the administration amount and the blood pressure after adiministration (lowermost blood pressure). This amount was defined as ED-40 mmHg for serving as an index of antihypertensive action. Tz was shown as the time required for recovery to 50 % of maximal […]. This value was used for an index of persistence.

Where [5] appears, read: oral amount for a 40 mmHg decrease in blood pressure, suspended in 0.5 % carboxymethylcellulose, ten rats.

Where a name gives a salt, the structure may show the parent alone. Read-outs that look alike come from different tables or passages of the source. Marks after values point to notes of the source that are not given here.

As for “1,4-dihydro-2,6-dimethyl-4-(3'-nitrophenyl)-3,5-pyridinedicarboxylic acid methyl (1-piperidinylmethylcyclohexyl)methyl ester hydrochloride [Example 2]”, the “Antihypertensive Action” value in series [1] is -89 mmHg.

With `COC(=O)C1=C(C)NC(C)=C(C(=O)OCC2(CN(C)Cc3ccccc3)CCCCC2)C1c1cccc([N+](=O)[O-])c1.Cl` (racemic) [Example 1, 1,4-dihydro-2,6-dimethyl-4-(3'-nitrophenyl)-3,5-pyridinedicarboxylic acid 1-(N-benzyl-N-methylaminomethyl)cyclohexylmethyl methyl ester hydrochloride], the “Antihypertensive Action” value in series [1] was -131 mmHg. On the same count and under the same terms, as for `COC(=O)C1=C(C)NC(C)=C(C(=O)OCC2(CN3CCN(c4ccccc4)CC3)CCCCC2)C1c1cccc([N+](=O)[O-])c1` (racemic) [Example 3, 1,4-dihydro-2,6-dimethyl-4-(3'-nitrophenyl)-3,5-pyridinedicarboxylic acid methyl 1-(4-phenylpiperazinylmethyl)cyclohexylmethyl ester dihydrochloride.1/2 acetone adduct], the figure is -109 mmHg. Take `CC1=C(C(=O)OCC2(CN(C)C)CCCCC2)C(c2cccc([N+](=O)[O-])c2)C(C(=O)OC(C)C)=C(C)N1` (racemic) [Example 5]: in series [1], the “Antihypertensive Action” value was -68 mmHg. Consider `CCOC(=O)C1=C(C)NC(C)=C(C(=O)OCC2(CN(C)Cc3ccccc3)CCCCC2)C1c1cccc([N+](=O)[O-])c1` (racemic) [Example 6, 1,4-dihydro-2,6-dimethyl-4-(3'-nitrophenyl)-3,5-pyridinedicarboxylic acid 1-(N-benzyl-N-methylaminomethyl)cyclohexylmethyl ethyl ester], for which the “Antihypertensive Action” value in series [1] was -110 mmHg. Consider `CCOC(=O)C1=C(C)NC(C)=C(C(=O)OCC2(CN(C)C)CCCCC2)C1c1cccc([N+](=O)[O-])c1` (racemic) [Example 7], for which the “Antihypertensive Action” value in series [1] is -61 mmHg.

In the case of `COC(=O)C1=C(C)NC(C)=C(C(=O)OCC2(CN(C)Cc3ccccc3)CCCCC2)C1c1cc([N+](=O)[O-])ccc1F` (racemic) [Example 8], in series [1], the “Antihypertensive Action” value is on record as -140 mmHg. Take `COC(=O)C1=C(C)NC(C)=C(C(=O)OCC2(CN3CCN(Cc4ccccc4)CC3)CCCCC2)C1c1cccc([N+](=O)[O-])c1` (racemic) [Example 10]: the “Antihypertensive Action” value in series [1] was -110 mmHg.

Consider `COC(=O)C1=C(C)NC(C)=C(C(=O)OCC2(CN3CCN(C)CC3)CCCCC2)C1c1cccc([N+](=O)[O-])c1` (racemic) [Example 11], for which the “Antihypertensive Action” value in series [1] is on record as -74 mmHg.

For the compound `COC(=O)C1=C(C)NC(C)=C(C(=O)OCC2(CN3CCOCC3)CCCCC2)C1c1cccc([N+](=O)[O-])c1` (racemic) [Example 12], the “Antihypertensive Action” value in series [1] is on record as -113 mmHg. Take `CCN(CC)CC1(COC(=O)C2=C(C)NC(C)=C(C(=O)OC)C2c2cccc([N+](=O)[O-])c2)CCCCC1` (racemic) [Example 13]: the “Antihypertensive Action” value in series [1] is -108 mmHg. Turning to `COC(=O)C1=C(C)NC(C)=C(C(=O)OCC2(CN(C)Cc3ccc(F)cc3)CCCCC2)C1c1cccc([N+](=O)[O-])c1` (racemic) [Example 15], the “Antihypertensive Action” value in series [1] is given as -114 mmHg. The same measure, in the same setting: as for `COC(=O)C1=C(C)NC(C)=C(C(=O)OCC2(CN(C)Cc3ccccc3Cl)CCCCC2)C1c1cccc([N+](=O)[O-])c1` (racemic) [Example 16], the figure is -120 mmHg. On the same count and under the same terms, as for `COC(=O)C1=C(C)NC(C)=C(C(=O)OCC2(CN3CCN(C(c4ccccc4)c4ccccc4)CC3)CCCCC2)C1c1cccc([N+](=O)[O-])c1` (racemic) [Example 17], the figure is -112 mmHg; as for `COC(=O)C1=C(C)NC(C)=C(C(=O)OCC2(CN(C)C)CCCCC2)C1c1cccc([N+](=O)[O-])c1` (single isomer, unassigned) [Example 21], -53 mmHg; as for `COC(=O)C1=C(C)NC(C)=C(C(=O)OCC2(CN(C)Cc3ccc(Cl)cc3)CCCCC2)C1c1cccc([N+](=O)[O-])c1` (single isomer, unassigned) [Example 22], -122 mmHg. Regarding `COC(=O)C1=C(C)NC(C)=C(C(=O)OCC2(CN3CCOCC3)CCCCC2)C1c1cccc([N+](=O)[O-])c1` (single isomer, unassigned) [Example 23], in series [1], the “Antihypertensive Action” value is listed as -87 mmHg.

Consider `COC(=O)C1=C(C)NC(C)=C(C(=O)OCC2(CN3CCN(C)CC3)CCCCC2)C1c1cccc([N+](=O)[O-])c1` (single isomer, unassigned) [Example 24], for which the “Antihypertensive Action” value in series [1] is recorded as -79 mmHg. `COC(=O)C1=C(C)NC(C)=C(C(=O)OCC2(CN3CCN(Cc4ccccc4)CC3)CCCCC2)C1c1cccc([N+](=O)[O-])c1` (single isomer, unassigned) [Example 25]: in series [1], the “Antihypertensive Action” value was -98 mmHg.

Consider `COC(=O)C1=C(C)NC(C)=C(C(=O)OCC2(CN(C)Cc3ccc(F)cc3)CCCCC2)C1c1cccc([N+](=O)[O-])c1` (single isomer, unassigned) [Example 26], for which, in series [1], the “Antihypertensive Action” value is given as -111 mmHg.

Take `CCN(Cc1ccccc1)CC1(COC(=O)C2=C(C)NC(C)=C(C(=O)OC)C2c2cccc([N+](=O)[O-])c2)CCCCC1` (single isomer, unassigned) [Example 27]: the “Antihypertensive Action” value in series [1] is -109 mmHg. Broadly, the IC50 is the concentration at which inhibition is half-maximal. Take `COC(=O)C1=C(C)NC(C)=C(C(=O)OCC2(CN(C)Cc3ccccc3)CCCCC2)C1c1cccc([N+](=O)[O-])c1.Cl` (single isomer, unassigned; (+)) [Example 18, (+)-1,4-dihydro-2,6-dimethyl-4-(3'-nitro-phenyl)-3,5-pyridinedicarboxylic acid 1-(N-benzyl-N-methylaminomethyl)cyclohexylmethyl methyl ester hydrochloride]: in series [1], the “Antihypertensive Action” value is listed as -96 mmHg. Further, the IC50 in series [2] was found to be 100 nM. The LD50 in series [3] (medium DMSO) was 130 mg/kg. In addition, the ED (40 mmHg decrease) in series [4] (setting [5]) worked out at 0.7 mg/kg. Besides, the “T1/2(dose)” value in series [4] (oral dose 3 mg/kg) was >6.0 hr(3 mg/kg)*. On to `COC(=O)C1=C(C)NC(C)=C(C(=O)OCC2(CN3CCCCC3)CCCCC2)C1c1cccc([N+](=O)[O-])c1` (single isomer, unassigned; (+)) [Example 19, (+)-1,4-dihydro-2,6-dimethyl-4-(3'-nitro-phenyl)-3,5-pyridinedicarboxylic acid methyl (1-piperidinylmethylcyclohexyl)methyl ester hydrochloride], for which the “Antihypertensive Action” value in series [1] was -75 mmHg. Moreover, the IC50 in series [2] worked out at 1.5 nM. Besides, the LD50 in series [3] (medium DMSO) came out at 100 mg/kg. Further, in series [4] (setting [5]), the ED (40 mmHg decrease) was determined as 0.5 mg/kg. Moreover, the “T1/2(dose)” value in series [4] (oral dose 3 mg/kg) is on record as >6.0 hr(3 mg/kg)*.

Turning to `COC(=O)C1=C(C)NC(C)=C(C(=O)OCC2(CN3CCN(c4ccccc4)CC3)CCCCC2)C1c1cccc([N+](=O)[O-])c1` (single isomer, unassigned; (+)) [Example 20, (+)-1,4-dihydro-2,6-dimethyl-4-(3'-nitro-phenyl)-3,5-pyridinedicarboxylic acid methyl 1-(4-phenylpiperazinylmethyl)cyclohexylmethyl ester dihydrochloride], the “Antihypertensive Action” value in series [1] is recorded as -129 mmHg. Also, the IC50 in series [2] amounted to 420 nM. Further, in series [3] (medium CMC), the LD50 was determined as 290 mg/kg. In series [4] (setting [5]), the ED (40 mmHg decrease) amounted to 0.3 mg/kg. In series [4] (oral dose 1 mg/kg), the “T1/2(dose)” value is >6.0 hr(1 mg/kg)*. For the compound `COC(=O)C1=C(C)NC(C)=C(C(=O)OCCN2CCN(C(c3ccccc3)c3ccccc3)CC2)C1c1cccc([N+](=O)[O-])c1` (stereo not drawn) [Manidipine, reference compound], the IC50 in series [2] was 27 nM. Also, the LD50 in series [3] (medium CMC) was 200 mg/kg. In series [4] (setting [5]), the ED (40 mmHg decrease) was found to be 1.7 mg/kg. Besides, the “T1/2(dose)” value in series [4] (oral dose 3 mg/kg) was 5.0 hr(3 mg/kg)*. As for `COC(=O)C1=C(C)NC(C)=C(C(=O)OCCN(C)Cc2ccccc2)C1c1cccc([N+](=O)[O-])c1` (stereo not drawn) [Nicardipine, nicardipine, reference compound], the “Antihypertensive Action” value in series [1] is -77 mmHg. The IC50 in series [2] worked out at 6.8 nM. The LD50 in series [3] (medium DMSO) turned out to be 190 mg/kg. Besides, the ED (40 mmHg decrease) in series [4] (setting [5]) stood at 2.6 mg/kg. Also, the “T1/2(dose)” value in series [4] (oral dose 10 mg/kg) is listed as 4.5 hr(10mg/kg)*. Regarding `COC(=O)C1=C(C)NC(C)=C(C(=O)OC)C1c1ccccc1[N+](=O)[O-]` [Nifedipine, nifedipine, reference compound], the “Antihypertensive Action” value in series [1] is listed as -58 mmHg. Besides, the IC50 in series [2] turned out to be 29 nM. For the same compound, in series [4] (po), the ED (40 mmHg decrease) came to 3.3 mg/kg.

(Values after patent EP0479665A2, “1,4-Dihydropyridine derivatives, method for preparing the same and use thereof” (TEIKOKU CHEMICAL INDUSTRIES CO., LTD., priority 1990, dated 1992).)
